Measured values reported in ChEMBL document CHEMBL1201862, “PubChem BioAssay data set” (2004).
Activity calls are given as the source filed them.

Assays:
[1] = target: DNA repair and recombination protein RAD54-like (Homo sapiens, UniProt Q92698); assay: inhibitors of human RAD54 branch migration, confirmation, biochemical, fluorescence, cherry-picked samples, dose series (AID 651657); format: functional
Orexin receptor type 2 [2] = target: T1, Orexin receptor type 2 (Homo sapiens, UniProt O43614); assay: Counterscreen assay for antagonists of the orexin 1 receptor (OX1R; HCRTR1): Fluorescence-based cell-based dose response assay for antagonists of the orexin 2 receptor (OX2R; HCRTR2), run by assay provider.; format: functional
T1 sequence (O43614 whole entry): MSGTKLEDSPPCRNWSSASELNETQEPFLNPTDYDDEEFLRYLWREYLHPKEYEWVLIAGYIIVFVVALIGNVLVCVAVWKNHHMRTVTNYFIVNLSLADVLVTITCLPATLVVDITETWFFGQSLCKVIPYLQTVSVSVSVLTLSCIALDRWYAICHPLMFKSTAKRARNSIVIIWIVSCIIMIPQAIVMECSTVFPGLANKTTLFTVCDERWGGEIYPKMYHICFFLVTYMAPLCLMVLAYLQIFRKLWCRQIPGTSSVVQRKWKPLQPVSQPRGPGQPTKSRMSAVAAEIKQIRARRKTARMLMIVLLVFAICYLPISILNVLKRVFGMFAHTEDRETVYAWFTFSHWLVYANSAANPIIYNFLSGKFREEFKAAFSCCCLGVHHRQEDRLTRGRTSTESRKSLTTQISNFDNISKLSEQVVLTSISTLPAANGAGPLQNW

[3] = target: T2, Ubiquitin-conjugating enzyme E2 N (Homo sapiens, UniProt P61088); format: functional
T2 sequence (P61088 whole entry): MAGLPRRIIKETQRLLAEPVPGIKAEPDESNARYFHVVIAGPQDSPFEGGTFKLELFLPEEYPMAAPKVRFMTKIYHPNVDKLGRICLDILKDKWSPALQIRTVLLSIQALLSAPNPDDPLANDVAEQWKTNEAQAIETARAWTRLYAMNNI

Orexin receptor type 2 [4] = target: T1, Orexin receptor type 2; assay: Counterscreen assay for antagonists of the orexin 1 receptor (OX1R; HCRTR1): Homogeneous Time Resolved Fluorescence (HTRF)-based cell-based dose response assay for antagonists of the orexin 2 receptor (OX2R; HCRTR2), run by assay provider.; format: functional
[5] = target: T3, Polyadenylate-binding protein 1 (Homo sapiens, UniProt P11940); assay: PABP1 MLLE–PAM2 interaction inhibitors, dose response, miRNA deadenylation inhibitor project, biochemical, fluorescence polarization, Cy5-PAM2 peptide, secondary (AID 602260); format: functional; conditions: read-out: IC50_Mean
[6] = target: T4, Zinc finger protein mex-5 (Caenorhabditis elegans, UniProt Q9XUB2); assay: MEX-5/TCR-2 RNA interaction inhibitors, dose response, biochemical, C. elegans, fluorescence polarization (AID 1960)
T4 sequence (Q9XUB2 whole entry): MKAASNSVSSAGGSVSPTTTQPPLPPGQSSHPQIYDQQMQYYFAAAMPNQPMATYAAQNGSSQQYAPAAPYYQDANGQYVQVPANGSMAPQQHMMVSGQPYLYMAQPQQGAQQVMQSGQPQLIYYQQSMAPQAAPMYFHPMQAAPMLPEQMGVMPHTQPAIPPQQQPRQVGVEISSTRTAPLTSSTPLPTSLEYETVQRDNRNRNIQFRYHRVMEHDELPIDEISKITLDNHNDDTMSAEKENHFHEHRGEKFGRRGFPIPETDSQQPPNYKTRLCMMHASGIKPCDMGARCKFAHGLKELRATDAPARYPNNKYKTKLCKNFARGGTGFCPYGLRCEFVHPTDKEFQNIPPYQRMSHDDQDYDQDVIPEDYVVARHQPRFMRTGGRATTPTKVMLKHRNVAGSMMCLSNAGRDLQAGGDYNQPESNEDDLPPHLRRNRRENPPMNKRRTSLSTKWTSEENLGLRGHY

[7] = target: T2, Ubiquitin-conjugating enzyme E2 N; format: functional; remark: listed apart in the source
[8] = (§1) Counterscreen for antagonists of the orexin 1 receptor (OX1R; HCRTR1): Fluorescence-based cell-based high throughput dose response assay to identify antagonists of the parental CHO cell line. [Related pubchem assays (depositor defined):AID434989, AID435008, AID463079, AID485270, AID492963, AID492964, AID492965, AID493232, AID504699, AID504701]; format: functional
CHO-K1 = assay: as §1, with “Homogeneous time resolved fluorescence (HTRF)-based” for “Fluorescence-based”, “cell-based” for “cell-based high throughput”, “CHO-K1” for “CHO”; format: functional; conditions: Cricetulus griseus
Bcl-2-related protein A1 = target: T5, Bcl-2-related protein A1 (Mus musculus, UniProt Q07440); format: functional;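 further: confirmatory dose–response counterscreen on Bfl-1, used to check hits from a UBC13 polyubiquitin inhibitor campaign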
T5 sequence (Q07440 whole entry): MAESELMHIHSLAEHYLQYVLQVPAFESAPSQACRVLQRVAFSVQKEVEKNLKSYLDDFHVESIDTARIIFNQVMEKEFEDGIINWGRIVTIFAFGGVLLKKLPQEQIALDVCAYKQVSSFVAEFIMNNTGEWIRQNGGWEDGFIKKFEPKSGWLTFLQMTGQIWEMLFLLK

[9] = target: T3, Polyadenylate-binding protein 1; assay: PABP1 MLLE–PAM2 binding inhibitor potency, dose response, biochemical, fluorescence polarization, FITC-PAM2 peptide (AID 602259); format: functional; conditions: read-out: IC50_Mean
[10] = target: T6, Orexin/Hypocretin receptor type 1 (Homo sapiens, UniProt O43613); assay: (§2) Fluorescence-based cell-based high throughput dose response assay for antagonists of the orexin 1 receptor (OX1R; HCRTR1). [Related pubchem assays (depositor defined):AID434989, AID435008, AID463079, AID485270, AID492963, AID492964, AID492965, AID493232, AID504717, AID504718]; format: functional
T6 sequence (O43613 whole entry): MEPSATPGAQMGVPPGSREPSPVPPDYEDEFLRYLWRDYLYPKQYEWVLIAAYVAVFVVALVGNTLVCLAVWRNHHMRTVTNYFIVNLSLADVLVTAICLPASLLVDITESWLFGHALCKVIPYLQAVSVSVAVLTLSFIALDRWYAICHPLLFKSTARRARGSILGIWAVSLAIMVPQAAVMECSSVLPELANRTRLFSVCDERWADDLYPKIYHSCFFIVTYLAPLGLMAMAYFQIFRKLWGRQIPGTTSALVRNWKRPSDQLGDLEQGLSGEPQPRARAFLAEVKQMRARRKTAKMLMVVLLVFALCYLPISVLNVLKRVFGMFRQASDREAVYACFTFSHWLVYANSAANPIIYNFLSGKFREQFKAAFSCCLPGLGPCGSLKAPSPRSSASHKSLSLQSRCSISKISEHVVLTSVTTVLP

[11] = target: T7, Rac GTPase-activating protein 1 (Homo sapiens, UniProt Q9H0H5); assay: MgcRacGAP GTPase-activating activity inhibitors, confirmation, biochemical, ADP Hunter fluorescence, primary and confirmatory (AID 624330); format: functional
T7 sequence (Q9H0H5 whole entry): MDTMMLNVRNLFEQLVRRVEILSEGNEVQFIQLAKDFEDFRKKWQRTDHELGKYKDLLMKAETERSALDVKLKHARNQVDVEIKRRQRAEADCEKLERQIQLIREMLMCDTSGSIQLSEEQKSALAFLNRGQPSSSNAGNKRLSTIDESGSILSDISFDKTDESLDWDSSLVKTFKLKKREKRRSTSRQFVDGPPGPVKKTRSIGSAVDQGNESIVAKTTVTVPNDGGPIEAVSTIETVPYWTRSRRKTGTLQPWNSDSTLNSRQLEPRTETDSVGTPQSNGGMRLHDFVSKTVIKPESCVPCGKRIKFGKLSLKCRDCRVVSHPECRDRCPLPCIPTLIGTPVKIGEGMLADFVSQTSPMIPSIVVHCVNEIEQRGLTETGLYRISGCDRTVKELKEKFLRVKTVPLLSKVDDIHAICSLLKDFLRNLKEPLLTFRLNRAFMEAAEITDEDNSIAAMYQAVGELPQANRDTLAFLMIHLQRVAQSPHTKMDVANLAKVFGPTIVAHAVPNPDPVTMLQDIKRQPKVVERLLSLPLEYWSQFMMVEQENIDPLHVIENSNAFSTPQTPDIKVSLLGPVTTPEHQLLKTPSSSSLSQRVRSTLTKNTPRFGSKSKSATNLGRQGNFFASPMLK

[12] = target: T6, Orexin/Hypocretin receptor type 1; assay: as §2, with “Homogeneous Time Resolved Fluorescence (HTRF)-based” for “Fluorescence-based”; format: functional
[13] = target: T8, RNA-binding protein pos-1 (Caenorhabditis elegans, UniProt G5EF15); assay: inhibitors of POS-1/mex-3 RNA binding, dose response, biochemical, fluorescence polarization (AID 1964);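 further: purified POS-1 fused to maltose binding protein made in E. coli; potency of compounds blocking POS-1 binding to fluorescent RNA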
T8 sequence (G5EF15 whole entry): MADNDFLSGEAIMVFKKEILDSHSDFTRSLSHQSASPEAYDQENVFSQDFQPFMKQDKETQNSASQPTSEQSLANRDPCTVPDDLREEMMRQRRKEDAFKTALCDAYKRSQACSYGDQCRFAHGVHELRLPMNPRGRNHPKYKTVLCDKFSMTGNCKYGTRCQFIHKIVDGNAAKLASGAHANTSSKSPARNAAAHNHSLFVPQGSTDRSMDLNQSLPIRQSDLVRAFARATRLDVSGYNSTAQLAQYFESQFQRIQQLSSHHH

[14] = Luminescence Cell-Based Dose Confirmation HTS to Identify Activators of 5'UTR Stem-Loop Driven Alpha-Synuclein mRNA Translation in H4 Neuroglioblastoma Cells. [Related pubchem assays: 1829 (Project Summary), 1814 (Primary HTS)]; format: functional
[15] = Luminescence Cell-Based Dose Response HTS to Identify Activators of Luciferase Translation or Activity in H4 […] Cells. [Related pubchem assays: 1829 (Project Summary), 1814 (Primary HTS)]; format: functional
H4 = assay: Luminescence Cell-Based Dose Response HTS to Identify Activators of 5'UTR Stem-Loop Driven Prion Protein mRNA Translation in H4 Neuroglioblastoma Cells. [Related pubchem assays: 1829 (Project Summary), 1814 (Primary HTS)]; format: functional; conditions: Homo sapiens
[16] = Counterscreen for inhibitors of Trypanosoma brucei methionyl tRNA synthetase (MetRS): Luminescence-based cell-based high throughput dose response assay to identify compounds that are cytotoxic to Jurkat human T lymphocyte cells.; format: functional
[17] = target: T9, Methionyl-tRNA synthetase, putative (Trypanosoma brucei brucei, UniProt Q38C91); format: functional, Trypanosoma brucei brucei strain 927/4 GUTat10.1;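 further: Read-out by fluorescence polarization, run as a confirmatory high-throughput counterscreen; potency of MetRS inhibitors measured by reduced AMP formation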
T9 sequence (Q38C91 whole entry): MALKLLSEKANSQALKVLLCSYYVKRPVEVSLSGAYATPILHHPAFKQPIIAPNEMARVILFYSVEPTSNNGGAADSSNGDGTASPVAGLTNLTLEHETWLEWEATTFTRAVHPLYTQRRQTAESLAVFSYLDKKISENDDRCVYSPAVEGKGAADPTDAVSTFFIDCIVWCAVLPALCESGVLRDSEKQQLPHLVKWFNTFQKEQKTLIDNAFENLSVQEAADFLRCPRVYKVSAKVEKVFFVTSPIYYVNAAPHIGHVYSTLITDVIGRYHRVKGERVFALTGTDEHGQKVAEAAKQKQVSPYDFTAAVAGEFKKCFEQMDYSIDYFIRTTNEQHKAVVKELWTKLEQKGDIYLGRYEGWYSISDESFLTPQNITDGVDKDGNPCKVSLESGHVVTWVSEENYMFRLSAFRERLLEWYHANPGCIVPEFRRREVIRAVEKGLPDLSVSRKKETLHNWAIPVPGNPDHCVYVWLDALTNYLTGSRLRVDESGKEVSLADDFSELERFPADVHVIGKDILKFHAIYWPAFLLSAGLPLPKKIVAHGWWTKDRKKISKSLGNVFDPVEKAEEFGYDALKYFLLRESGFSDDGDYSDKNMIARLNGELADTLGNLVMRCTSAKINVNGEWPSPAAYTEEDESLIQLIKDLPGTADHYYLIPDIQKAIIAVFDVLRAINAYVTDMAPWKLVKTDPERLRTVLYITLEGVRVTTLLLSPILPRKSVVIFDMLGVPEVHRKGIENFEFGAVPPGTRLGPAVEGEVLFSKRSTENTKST

[18] = target: T10, DNA repair protein RAD52 homolog (Homo sapiens, UniProt P43351); format: functional, biochemical
T10 sequence (P43351 whole entry): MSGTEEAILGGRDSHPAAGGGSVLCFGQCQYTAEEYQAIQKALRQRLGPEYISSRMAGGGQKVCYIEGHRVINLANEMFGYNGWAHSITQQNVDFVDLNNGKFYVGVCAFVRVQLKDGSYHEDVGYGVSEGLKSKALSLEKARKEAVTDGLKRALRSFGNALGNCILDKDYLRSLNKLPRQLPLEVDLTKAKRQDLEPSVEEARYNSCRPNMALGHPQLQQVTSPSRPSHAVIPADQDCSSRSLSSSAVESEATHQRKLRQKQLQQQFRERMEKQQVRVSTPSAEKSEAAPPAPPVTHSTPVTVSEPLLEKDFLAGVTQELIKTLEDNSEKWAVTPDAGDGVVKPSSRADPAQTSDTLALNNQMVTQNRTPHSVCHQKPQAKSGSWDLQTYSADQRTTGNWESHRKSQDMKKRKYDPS

[19] = target: Adenosylmethionine-8-amino-7-oxononanoate aminotransferase (Mycobacterium tuberculosis, UniProt P9WQ81); assay: Mycobacterium tuberculosis BioA enzyme inhibitor Measured in Biochemical System Using Plate Reader - 2163-02_Inhibitor_Dose_CherryPick_Activity.; format: functional, Mycobacterium tuberculosis UT205
Adenosylmethionine-8-amino-7-oxononanoate aminotransferase, sequence (P9WQ81 whole entry): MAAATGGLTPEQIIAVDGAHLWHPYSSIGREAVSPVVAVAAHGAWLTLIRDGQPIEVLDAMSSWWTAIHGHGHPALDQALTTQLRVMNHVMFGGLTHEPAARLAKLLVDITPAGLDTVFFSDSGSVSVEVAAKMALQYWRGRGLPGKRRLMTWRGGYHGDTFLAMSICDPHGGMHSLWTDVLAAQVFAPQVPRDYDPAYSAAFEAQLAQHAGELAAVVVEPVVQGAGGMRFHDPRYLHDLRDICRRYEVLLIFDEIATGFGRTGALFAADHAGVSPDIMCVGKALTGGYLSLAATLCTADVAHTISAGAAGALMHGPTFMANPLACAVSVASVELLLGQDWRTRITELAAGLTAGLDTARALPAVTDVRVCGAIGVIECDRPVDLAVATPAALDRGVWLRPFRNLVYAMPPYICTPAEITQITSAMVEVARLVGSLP

T3 sequence (P11940 whole entry): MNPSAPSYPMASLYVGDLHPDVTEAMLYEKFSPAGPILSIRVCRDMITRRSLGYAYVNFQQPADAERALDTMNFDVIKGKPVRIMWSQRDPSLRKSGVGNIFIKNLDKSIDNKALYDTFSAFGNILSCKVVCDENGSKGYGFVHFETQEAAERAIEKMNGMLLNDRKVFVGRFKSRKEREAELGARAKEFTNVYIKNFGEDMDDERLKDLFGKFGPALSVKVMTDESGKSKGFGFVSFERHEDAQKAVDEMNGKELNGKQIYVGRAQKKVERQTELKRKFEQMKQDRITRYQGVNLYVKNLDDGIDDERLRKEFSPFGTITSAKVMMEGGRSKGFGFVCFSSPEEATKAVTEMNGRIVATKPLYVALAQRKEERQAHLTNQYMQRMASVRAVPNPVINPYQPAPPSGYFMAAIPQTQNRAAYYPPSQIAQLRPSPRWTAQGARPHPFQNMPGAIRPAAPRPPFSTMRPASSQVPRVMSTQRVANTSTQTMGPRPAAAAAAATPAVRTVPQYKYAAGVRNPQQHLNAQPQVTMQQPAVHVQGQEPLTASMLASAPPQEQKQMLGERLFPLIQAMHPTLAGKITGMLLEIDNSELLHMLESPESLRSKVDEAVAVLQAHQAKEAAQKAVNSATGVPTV
DNA repair and recombination protein RAD54-like, sequence (Q92698 whole entry): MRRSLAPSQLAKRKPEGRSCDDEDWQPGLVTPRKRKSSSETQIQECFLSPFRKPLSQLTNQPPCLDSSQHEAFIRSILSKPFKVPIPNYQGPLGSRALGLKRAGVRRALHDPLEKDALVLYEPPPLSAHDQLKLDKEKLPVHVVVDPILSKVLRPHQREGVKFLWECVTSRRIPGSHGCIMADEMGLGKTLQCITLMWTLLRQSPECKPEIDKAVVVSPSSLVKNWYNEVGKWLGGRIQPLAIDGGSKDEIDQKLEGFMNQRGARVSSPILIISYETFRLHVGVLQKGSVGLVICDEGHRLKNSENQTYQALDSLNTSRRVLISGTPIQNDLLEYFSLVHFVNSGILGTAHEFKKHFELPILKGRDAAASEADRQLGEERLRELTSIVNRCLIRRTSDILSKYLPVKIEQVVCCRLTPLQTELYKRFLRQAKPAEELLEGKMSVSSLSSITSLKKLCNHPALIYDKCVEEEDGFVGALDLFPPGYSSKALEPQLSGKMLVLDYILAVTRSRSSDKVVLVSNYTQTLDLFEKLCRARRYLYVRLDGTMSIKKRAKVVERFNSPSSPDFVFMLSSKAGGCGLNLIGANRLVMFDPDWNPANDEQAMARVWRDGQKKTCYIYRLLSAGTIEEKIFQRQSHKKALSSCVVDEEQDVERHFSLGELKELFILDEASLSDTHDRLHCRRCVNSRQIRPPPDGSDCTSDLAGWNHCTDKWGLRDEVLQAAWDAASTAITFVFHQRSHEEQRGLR

## O=c1c2ccccc2oc2ccc(NCCCN3CCOCC3)cc12
[1]
  AC50: 34.2 µM (active)

## Oc1ccc(NC(=S)N=Nc2c(O)[nH]c3ccccc23)cc1
Orexin receptor type 2 [2]
  IC50: > 88.8 µM (inactive)
[3]
  IC50: 0.763 µM (active)
Orexin receptor type 2 [4]
  IC50: > 50 µM (inactive)
[5]
  IC50: > 66 µM (inactive)
[6]
  EC50: 3.98 µM (active)
[7]
  IC50: 2.17 µM (active)
[8]
  IC50: > 49.8 µM (inactive)
CHO-K1
  IC50: > 66.2 µM (inactive)
Bcl-2-related protein A1
  IC50: > 20 µM (inactive)
[9]
  IC50: > 66 µM (inactive)
[10]
  IC50: 43.6 µM (inactive)
[11]
  IC50: 21.5 µM (active)
[12]
  IC50: 3.24 µM (active)
[13]
  EC50: 16.3 µM (active)

## Cc1ccc2[nH]c(-c3ccc(SCC(=O)Nc4ccc5c(c4)OCCO5)nc3)nc2c1
[14]
  EC50: 1.13 µM (active)
[15]
  EC50: 1.99 µM (active)
H4
  EC50: 11.3 µM (active)
[16]
  IC50: 83.3 µM (inactive)

## Cc1ccc2nc(-c3ccc(SCC(=O)Nc4ccc5c(c4)OCCO5)nc3)[nH]c2c1
[17]
  IC50: 21.5 µM (inactive)

## Cc1cc(C)c2c(c1)c1nnc(SCCN3CCCCC3)nc1n2C
[18]
  AC50: 6.11 µM (active)
[1]
  AC50: 11 µM (active)

## CN1c2ccc(-c3cccc(F)c3)cc2[C@H]2[C@H](CCN2C(=O)C2CC2)[C@H]1CO
[19]
  AC50: 0.134 µM (active)

## CO/C(O)=C1\C(C)=Nc2sc(C(N)=O)c(N)c2C1c1ccncc1 (centres undefined)
[19]
  AC50: 4.4 µM (active)
